Results from patent publication US9115169B2, “Method of treating tumors” (Lytix Biopharma AS, priority 2000, dated 2015).
≈ marks a conversion by molar mass, not a printed value. Where a SMILES comes first, the peptide text is derived from it. [ ]: non-standard residue; d: D form. The star is where a group is joined. βNA = c1ccc2cc(N*)ccc2c1; OBn = c1ccc(CO*)cc1

What was measured:
[1] = test system: Staphylococcus aureus ATCC 25923; settings: for MIC S. aureus: ATCC 25923
[2] = test system: Staphylococcus aureus ATCC 25923; settings: ATCC 25923
[3] = test system: MRSE ATCC 27626
Description: (§1) All strains were stored at −70° C. […] All assays were performed in duplicate.

[4] = test system: Escherichia coli ATCC 25922; settings: ATCC 25922
[5] = test system: MRSA ATCC 33591
Description: as §1

[6] = test system: MRSA ATCC 33591; settings: for MIC MRSA: ATCC 33591
Description: as §1

[7] = test system: Escherichia coli ATCC 25922; settings: for MIC E. coli: ATCC 25922
[8] = test system: MRSE ATCC 27626; settings: for MIC MRSE: ATCC 27626
Description: as §1

[9] = test system: P. aeruginosa
Description: as §1

COC(=O)[C@H](CCCNC(=N)N)NC(=O)[C@H](Cc1c[nH]c2ccccc12)NC(=O)[C@H](Cc1c[nH]c2ccccc12)NC(=O)[C@@H](N)CCCNC(=N)N [RWWR-OMe, H-L-Arg-L-Trp-L-Trp-L-Arg-OMe] (H-RWWR-OMe)
MIC S. aureus [1]: 75 µg/mL (≈ 105 µM) | MBC S. aureus [2]: 100 to 200 µg/mL | MBC MRSE [3]: 20 (20) μg/ml | MBC E. coli [4]: >200 (>200) μg/ml | MBC MRSA [5]: 100 to 200 µg/mL

N=C(N)NCCC[C@H](N)C(=O)N[C@@H](Cc1c[nH]c2ccccc12)C(=O)N[C@H](CCCNC(=N)N)C(=O)N[C@H](Cc1c[nH]c2ccccc12)C(=O)OCc1ccccc1 [RWrw-OBzl, H-L-Arg-L-Trp-D-Arg-D-Trp-OBzl] (H-RW[dR][dW]-OBn)
MIC MRSA [6]: 2.5 to 5 µg/mL | MIC S. aureus [1]: 5 (5) μg/ml | MBC S. aureus [2]: 5 (5) μg/ml | MIC E. coli [7]: 75 µg/mL (≈ 94.6 µM) | MBC MRSE [3]: 2.5 (2.5) μg/ml | MIC MRSE [8]: 2.5 (2.5) μg/ml | MBC E. coli [4]: 75 to 100 µg/mL | MBC MRSA [5]: 5 µg/mL (≈ 6.31 µM)

N=C(N)NCCC[C@H](N)C(=O)N[C@@H](Cc1c[nH]c2ccccc12)C(=O)Nc1ccc2ccccc2c1 [RWβNA] (H-Arg-Trp-βNA)
Minimum inhibitory concentration MRSA ([6]; Table 9): 12.5 µg/mL (≈ 25.7 µM) | Minimum inhibitory concentration S. aureus ([1]; Table 9): 12.5 µg/mL (≈ 25.7 µM) | Minimum inhibitory concentration E. coli ([7]; Table 9): 100 µg/mL (≈ 206 µM) | Minimum inhibitory concentration MRSE ([8]; Table 9): 12.5 µg/mL (≈ 25.7 µM)

N=C(N)NCCC[C@H](N)C(=O)N[C@H](Cc1c[nH]c2ccccc12)C(=O)OCc1ccccc1 [Rw-OBzl] (H-Arg-[dW]-OBn; N-terminus assumed)
MIC MRSA [6]: 37.5 µg/mL (≈ 83.2 µM) | MIC S. aureus [1]: 37.5 µg/mL (≈ 83.2 µM) | MIC E. coli [7]: >300 µg/mL | MIC MRSE [8]: 25 µg/mL (≈ 55.5 µM)

N=C(N)NCCC[C@H](NC(=O)[C@@H](N)Cc1c[nH]c2ccccc12)C(=O)OCc1ccccc1 [WR-OBzl] (H-Trp-Arg-OBn; N-terminus assumed)
MIC MRSA [6]: 37.5 µg/mL (≈ 83.2 µM) | MIC MRSE [8]: 50.0 µg/mL (≈ 111 µM) | MIC P. aerug. [9]: >300.0 µg/mL

COC(=O)[C@H](CCCNC(=N)N)NC(=O)[C@@H](N)Cc1c[nH]c2ccccc12 [WR-OMe, H-L-Trp-L-Arg-OMe] (H-Trp-Arg-OMe)
MBC S. aureus [2]: >200 (>200) μg/ml | MBC MRSE [3]: >200 (>200) μg/ml | MBC E. coli [4]: >200 (>200) μg/ml | MBC MRSA [5]: >200 (>200) μg/ml

N=C(N)NCCC[C@H](NC(=O)[C@@H](N)Cc1c[nH]c2ccccc12)C(=O)N[C@@H](Cc1c[nH]c2ccccc12)C(=O)OCc1ccccc1 [WRW OBz] (H-Trp-Arg-Trp-OBn)
MIC MRSA [6]: 5 µg/mL (≈ 7.85 µM) | MIC S. aureus [1]: 5 (5) μg/ml | MBC S. aureus [2]: 5 (5) μg/ml | MIC E. coli [7]: 75 µg/mL (≈ 118 µM) | MBC MRSE [3]: 5 (5) μg/ml | MIC MRSE [8]: 5 (5) μg/ml | MBC E. coli [4]: 200 µg/mL (≈ 314 µM) | MBC MRSA [5]: 10 µg/mL (≈ 15.7 µM)

COC(=O)[C@H](CCCNC(=N)N)NC(=O)[C@H](Cc1c[nH]c2ccccc12)NC(=O)[C@@H](N)Cc1c[nH]c2ccccc12 [WWR-OMe, H-L-Trp-L-Trp-L-Arg-OMe] (H-Trp-Trp-Arg-OMe)
MBC S. aureus [2]: >200 (>200) μg/ml | MBC MRSE [3]: >200 (>200) μg/ml | MBC E. coli [4]: >200 (>200) μg/ml | MBC MRSA [5]: >200 (>200) μg/ml

N=C(N)NCCC[C@@H](N)C(=O)N[C@@H](Cc1c[nH]c2ccccc12)C(=O)OCc1ccccc1 [rW-Obzl] (H-[dR]-Trp-OBn; N-terminus assumed)
MIC MRSA [6]: 50 µg/mL (≈ 111 µM) | MIC S. aureus [1]: 37.5 µg/mL (≈ 83.2 µM) | MIC E. coli [7]: >300 µg/mL | MIC MRSE [8]: 25 µg/mL (≈ 55.5 µM)

N=C(N)NCCC[C@@H](N)C(=O)N[C@H](Cc1c[nH]c2ccccc12)C(=O)OCc1ccccc1 [rw OBz] (H-[dR]-[dW]-OBn)
MIC MRSA [6]: 50 µg/mL (≈ 111 µM) | MIC S. aureus [1]: 50 µg/mL (≈ 111 µM) | MBC S. aureus [2]: 75 µg/mL (≈ 166 µM) | MIC E. coli [7]: >200 (>200) μg/ml | MBC MRSE [3]: 25 µg/mL (≈ 55.5 µM) | MIC MRSE [8]: 20 µg/mL (≈ 44.4 µM) | MBC E. coli [4]: >200 (>200) μg/ml | MBC MRSA [5]: 75 µg/mL (≈ 166 µM)

N=C(N)NCCC[C@H](NC(=O)[C@H](N)Cc1c[nH]c2ccccc12)C(=O)N[C@@H](Cc1c[nH]c2ccccc12)C(=O)OCc1ccccc1 [wRW OBz] (H-[dW]-Arg-Trp-OBn)
MIC MRSA [6]: 20 (20) μg/ml | MIC S. aureus [1]: 20 (20) μg/ml | MBC S. aureus [2]: 20 (20) μg/ml | MIC E. coli [7]: 75 µg/mL (≈ 118 µM) | MBC MRSE [3]: 10 (10) μg/ml | MIC MRSE [8]: 10 (10) μg/ml | MBC E. coli [4]: 100 µg/mL (≈ 157 µM) | MBC MRSA [5]: 20 (20) μg/ml

N=C(N)NCCC[C@@H](NC(=O)[C@H](N)Cc1c[nH]c2ccccc12)C(=O)N[C@H](Cc1c[nH]c2ccccc12)C(=O)OCc1ccccc1 [wrw OBz] (H-[dW]-[dR]-[dW]-OBn)
MIC MRSA [6]: 5 µg/mL (≈ 7.85 µM) | MIC S. aureus [1]: 5 (5) μg/ml | MBC S. aureus [2]: 5 (5) μg/ml | MIC E. coli [7]: 75 µg/mL (≈ 118 µM) | MBC MRSE [3]: 5 (5) μg/ml | MIC MRSE [8]: 5 (5) μg/ml | MBC E. coli [4]: 200 µg/mL (≈ 314 µM) | MBC MRSA [5]: 10 µg/mL (≈ 15.7 µM)
